# Measurements taken from US20110177964A1, “CHEMOSENSORY ARRAYS” (THE TRUSTEES OF PRINCETON UNIVERSITY, priority 2009, published 2011).
# Changes are numbered by the printed parent chain.
# Experiments:
# [1] = molecular target: T1, 2211 receptor (Homo sapiens, UniProt Q15391, A193V/A252V/A98G/F243I/K54E); assay: Yeast growth plate assay (FUS1-HIS3 reporter) on selective media containing ligand; type: cell-based; details: 2211 (parent) receptor, selective plates with ligand
# T1 construct: expressed in transfected cells; host or cells: Saccharomyces yeast; strain CY10981 with FUS1-LacZ plasmid for β-galactosidase assays, strain CY10560 (FUS1-HIS3) for growth selection
# T1 sequence (Q15391 with tags, fused parts or gaps K54E/A98G/A193V/F243I/A252V): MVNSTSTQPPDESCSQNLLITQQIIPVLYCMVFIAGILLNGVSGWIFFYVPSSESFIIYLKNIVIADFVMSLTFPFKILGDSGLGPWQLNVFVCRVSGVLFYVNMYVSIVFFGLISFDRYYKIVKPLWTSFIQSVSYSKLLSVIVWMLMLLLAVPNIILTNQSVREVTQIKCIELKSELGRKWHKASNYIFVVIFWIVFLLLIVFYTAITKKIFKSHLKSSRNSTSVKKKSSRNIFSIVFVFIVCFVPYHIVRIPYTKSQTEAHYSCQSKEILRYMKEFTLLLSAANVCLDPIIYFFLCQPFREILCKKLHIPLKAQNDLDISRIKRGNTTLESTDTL
# From the text: Mutagenesis and selection of sensitized receptor mutants: The entire UDPG receptor gene was mutagenized via errorprone mutagenesis to an estimated frequency of −2-5 mutations/kb following the Mutazyme protocol. […] A total of (1-2)×10^5 colonies were screened by replica plating to SC-His medium (Kaiser, C., Michaelis, S, and Mitchell, A. (1994) Methods in Yeast Genetics: A Cold Spring Harbor Laboratory Course Manual. Cold Spring Harbor Laboratory Press, Cold Spring Harbor, N.Y., which is incorporated herein by reference as if fully set forth) with or without ligand. Yeast growth media was supplemented by 1 mM 3AT, a competitive inhibitor of the HIS3 reporter gene product, which sets the threshold for reporter gene activation.
# Cells were transformed with a plasmid library carrying the randomly mutated human UDPG receptor gene.
# The 20 receptors isolated in this primary screen were subsequently retested for growth in the presence of lower concentrations of each ligand, to ascertain whether the receptor had significant changes in ligand preference. […] To determine whether the receptors that lacked appreciable changes in ligand specificity were indeed mutants and to verify the complexity of the mutant library, the DNA encoding each receptor was sequenced.
# [2] = molecular target: T2, H-20 (R1) receptor (Homo sapiens, UniProt Q15391, A193V/A252V/A98G/F243I/I251T/K54E/R253K); assay: Yeast FUS1-lacZ β-galactosidase reporter assay, single receptor-single ligand calibration curves fitted by Bayesian nested sampling; type: cell-based; details: for ΔG (receptor-ligand binding free energy): H-20 (R1) expressed in yeast, average ± s.d. from posterior; for A (receptor efficacy): H-20 (R1), 1 = full agonist, 0 = full antagonist
# T2 construct: expressed in transfected cells; host or cells: Saccharomyces yeast; strain CY10981 with FUS1-LacZ plasmid for β-galactosidase assays, strain CY10560 (FUS1-HIS3) for growth selection
# T2 sequence (Q15391 with tags, fused parts or gaps K54E/A98G/A193V/F243I/I251T/A252V/R253K): T1 sequence (Q15391 with tags, fused parts or gaps K54E/A98G/A193V/F243I/A252V) with I251T, R253K
# From the text: (§1) To assess receptor ligand interactions quantitatively in the chemosensor array, the receptors were functionally expressed in yeast. To do so, the yeast pheromone receptor was replaced with one of the sensor GPCRs in strains in which the pheromone response pathway was modified to respond to the heterologous receptor by inducing transcription of the E. coli lacZ gene. See the example section below. In this fashion, the extent of GPCR activation following ligand addition could be monitored as the level of β-galactosidase produced in the cell, which was measured using a fluorescence-based assay. See the example section below.
# (§2) Receptor responses to binding of a single ligand. It was assumed that the observed signal in the receptor-bearing reporter strain is proportional to the probability that the receptor is bound by the ligand. This proportionality value, A, which is referred to as the receptor efficacy, can range from 1, for a full agonist, to 0, for a full antagonist, with intermediate values indicating partial agonist activity. In the simplest case of a single receptor interacting with a single ligand, the amount of activation of the reporter in the receptor bearing strain is given by:
# (§3) where A is the receptor efficacy, ΔG is the receptor-ligand binding free energy, b is the background intensity, β=1/kBT (kB is the Boltzmann constant, and T is the temperature), and μ^l=kBT log n^l, which is the chemical potential, where n^l is the ligand concentration. In the example of fluorescing products, I can be measured by a fluorescent assay, but the intensity of any report may be utilized. […] In this example, the four receptors are R1: H-20, R2: K-3, and R3: L-3, R4: 2211. See the example section below for details regarding these receptors. […] For each curve, intensity normalized by the maximum intensity on the plate is plotted against log10 n (n is the ligand concentration in M). The error bars on each curve are from four biological replicates. The single receptor-single ligand binding curves can be used to calibrate the biophysical model (Eq. (1)) by inferring ΔG, A and b for each receptor-ligand combination and knowledge of μ^l. Specifically, Bayesian inference is applied. Referring to FIG. 4, the posterior probability P(ΔG, A, b, σ|{Ĩ}) is found by nested sampling (see below), where Ĩ=(l=1 . . . N) is the lth fluorescent and a is the noise parameter. […] This step provides calibration by returning the most likely value of ΔG, A and b for each receptor-ligand pair, as well as a value σ, which represents the noise in the response. The average value of each parameter obtained by marginalization of the posterior probability can be subsequently used for analysis of a mixture of compounds.
# (§4) In this example, yeast cultures expressing each of the four mutant receptors (2211, H-20, K-3 and L-3) were grown overnight and diluted to OD600 of […] in flasks. Cultures were then grown to an OD600 of 0.1-0.2 and 80 μl of culture was aliquotted into deep-well 384 well plates along with 20 μL of ligand. Cultures in the 384 well plates were incubated with vigorous mixing for 4 hours (H-20, K-3, L-3) or overnight (2211). 50 μL of each sample was transferred to a black 384 well plate containing 25 μL fluorescein/lysis solution (as described in Chambers J, et al.). Fluorescence was read on a PerkinElmer fluorescent plate reader.
# [3] = molecular target: T3, K-3 (R2) receptor (Homo sapiens, UniProt Q15391, A193V/A252V/A98G/E278G/F243I/K54E); assay: as above; type: cell-based; details: for ΔG (receptor-ligand binding free energy): K-3 (R2) expressed in yeast, average ± s.d. from posterior; for A (receptor efficacy): K-3 (R2), 1 = full agonist, 0 = full antagonist
# T3 construct: expressed in transfected cells; host or cells: Saccharomyces yeast; strain CY10981 with FUS1-LacZ plasmid for β-galactosidase assays, strain CY10560 (FUS1-HIS3) for growth selection
# T3 sequence (Q15391 with tags, fused parts or gaps K54E/A98G/A193V/F243I/A252V/E278G): T1 sequence (Q15391 with tags, fused parts or gaps K54E/A98G/A193V/F243I/A252V) with E278G
# From the text: as §1, §2, §3, §4
# [4] = molecular target: T4, L-3 (R3) receptor (Homo sapiens, UniProt Q15391, A193V/A252V/A285S/A98G/F243I/K54E/L281V/L282F); assay: as above; type: cell-based; details: for ΔG (receptor-ligand binding free energy): L-3 (R3) expressed in yeast, average ± s.d. from posterior; for A (receptor efficacy): L-3 (R3), 1 = full agonist, 0 = full antagonist
# T4 construct: expressed in transfected cells; host or cells: Saccharomyces yeast; strain CY10981 with FUS1-LacZ plasmid for β-galactosidase assays
# T4 sequence (Q15391 with tags, fused parts or gaps K54E/A98G/A193V/F243I/A252V/L281V/L282F/A285S): T1 sequence (Q15391 with tags, fused parts or gaps K54E/A98G/A193V/F243I/A252V) with L281V, L282F, A285S
# From the text: as §1, §2, §3, §4
# [5] = molecular target: T5, 2211 (R4) receptor (Homo sapiens, UniProt Q15391, A193V/A252V/A98G/F243I/K54E); assay: as above; type: cell-based, yeast expressing yeast expressing yeast expressing yeast expressing human receptor receptor receptor receptor; details: for ΔG (receptor-ligand binding free energy): 2211 (R4) expressed in yeast, average ± s.d. from posterior; for A (receptor efficacy): 2211 (R4), 1 = full agonist, 0 = full antagonist
# T5 construct: expressed in transfected cells; host or cells: Saccharomyces yeast; strain CY10981 with FUS1-LacZ plasmid for β-galactosidase assays, strain CY10560 (FUS1-HIS3) for growth selection
# T5 sequence (Q15391 with tags, fused parts or gaps K54E/A98G/A193V/F243I/A252V): T1 sequence (Q15391 with tags, fused parts or gaps K54E/A98G/A193V/F243I/A252V)
# From the text: as §1, §2, §3, §4
# [6] = molecular target: T6, K-3 mutant receptor (Homo sapiens, UniProt Q15391, A193V/A252V/A98G/E278G/F243I/K54E); assay: Yeast growth plate assay (FUS1-HIS3 reporter) on selective media containing ligand; type: cell-based; details: K-3 mutant relative to its parent H-20
# T6 construct: expressed in transfected cells; host or cells: Saccharomyces yeast; strain CY10981 with FUS1-LacZ plasmid for β-galactosidase assays, strain CY10560 (FUS1-HIS3) for growth selection
# T6 sequence (Q15391 with tags, fused parts or gaps K54E/A98G/A193V/F243I/A252V/E278G): T1 sequence (Q15391 with tags, fused parts or gaps K54E/A98G/A193V/F243I/A252V) with E278G
# From the text: The ‘HIAR’ motif in transmembrane domain 6 was targeted. […] Libraries containing the randomized HIAR motif were constructed in vivo by cotransforming strain CY10560 cells with three DNA fragments: a 2211 receptor plasmid cut to remove the HIAR domain and a pair of PCR products synthesized with oligonucleotides randomized over the HIAR region and 50 and 30 extensions overlapping both sides of the gap in the plasmid. […] The 20 receptors isolated in this primary screen were subsequently retested for growth in the presence of lower concentrations of each ligand, to ascertain whether the receptor had significant changes in ligand preference. […] To determine whether the receptors that lacked appreciable changes in ligand specificity were indeed mutants and to verify the complexity of the mutant library, the DNA encoding each receptor was sequenced.
# H-20 was selected as the template for mutagenesis of three additional motifs, ‘AxxFY’ and ‘NMY’ in TM3 and ‘KExT’ in TM7. These mutants were tested in the same manner as the HIAR mutants, focusing only on mutants with clear changes in relative growth on one or more ligands.
Structure (SMILES),receptor response to ligand (yeast growth) [1],ΔG (receptor-ligand binding free energy) [2],A (receptor efficacy) [2],"agonist/antagonist character ([2]; H-20, small A, large negative ΔG)",ΔG (receptor-ligand binding free energy) [3],A (receptor efficacy) [3],"agonist/antagonist character ([3]; K-3, small A, large negative ΔG)",ΔG (receptor-ligand binding free energy) [4],A (receptor efficacy) [4],"agonist/antagonist character ([4]; L-3, small A, large negative ΔG)",ΔG (receptor-ligand binding free energy) [5],A (receptor efficacy) [5],"agonist/antagonist character ([5]; 2211, small A, large negative ΔG)",yeast growth in response to ligand [6]
Cc1cn([C@H]2C[C@H](O)[C@@H](COP(=O)(O)OP(=O)(O)O[C@H]3O[C@H](CO)[C@@H](O)[C@H](O)[C@H]3O)O2)c(=O)[nH]c1=O [dTDP-glucose],do not activate,–,–,–,–,–,–,–,–,–,–,–,–,–
"O=c1ccn([C@@H]2O[C@H](COP(=O)(O)OP(=O)(O)O)[C@@H](O)[C@H]2O)c(=O)[nH]1 [UDP, uridine diphosphate]",do not activate,-7.42 ± .05 kcal/mol,.008 ± .009,antagonist,-8.2 ± .2 kcal/mol,.18 ± .01,antagonist,-7.4 ± .1 kcal/mol,.02 ± .02,antagonist,-10.3 ± .3 kcal/mol,.010 ± .009,antagonist,grew
"CC(=O)N[C@H]1[C@@H](OP(=O)(O)OP(=O)(O)OC[C@H]2O[C@@H](n3ccc(=O)[nH]c3=O)[C@H](O)[C@@H]2O)O[C@H](CO)[C@@H](O)[C@@H]1O [UDP-GlcNAc, UDP-N-acetylglucosamine]",responds,-6.16 ± .06 kcal/mol,.51 ± .01,–,-5.36 ± .06 kcal/mol,.55 ± .01,–,-5.60 ± .06 kcal/mol,.43 ± .01,–,-8.00 ± .09 kcal/mol,.89 ± .04,–,–
"CC(=O)N[C@H]1[C@@H](OP(=O)(O)OP(=O)(O)OC[C@H]2O[C@@H](n3ccc(=O)[nH]c3=O)[C@H](O)[C@@H]2O)O[C@H](CO)[C@H](O)[C@@H]1O [UDP-GalNAc, UDP-N-acetylgaltactosamine]",responds,–,–,–,–,–,–,–,–,–,–,–,–,–
